A word on the T/C: it is the ratio of treated to control.

Data on 15 compounds can be found in PubChem BioAssay AID342 (DTP/NCI, 2004).

Values joined by “and” are separate entries in the source; they are usually repeats but may differ in a detail not shown here. Equal entries are not always repeated.

In this experiment the test system is Swiss mice, Sarcoma 180 sc, mean tumor weight T/C. The experiment is described as follows: NCI In Vivo Anticancer Drug Screen. Data for tumor model Sarcoma 180 (subcutaneous) in Swiss mice. Conditions: endpoint: mean tumor weight, higher = larger tumour. The procedure, abridged: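 Transplantable tumors were established in mice, compound was given, then survival or tumor size was recorded. The treated value was divided by the vehicle-control value.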

[1] abbreviates: dose: 500.0 mg/kg/injection, schedule: Q01DX007 (ip), vehicle: other.
Where [2] appears, read: dose: 62.5 mg/kg/injection, schedule: Q01DX007 (ip), vehicle: saline.

For the compound `CC12CCC3C(CCC4CC=CCC43C)C1CCC2=O` (configuration not stated), the T/C was 102 % of control (dose: 31.0 mg/kg/injection, schedule: Q01DX007 (sc), vehicle: steriod suspending solution); 105 % of control (dose: 62.5 mg/kg/injection, schedule: Q01DX007 (sc), vehicle: steriod suspending solution); 107 % of control and 123 % of control (dose: 125.0 mg/kg/injection, schedule: Q01DX007 (sc), vehicle: steriod suspending solution); 95 % of control and 96 % of control (dose: 250.0 mg/kg/injection, schedule: Q01DX007 (sc), vehicle: steriod suspending solution).
For `Cc1nc(C(N)=O)nc2ccccc12`, the T/C runs as follows: (dose: 62.5 mg/kg/injection, schedule: Q#A X014 (ip), vehicle: methylcellulose (MC)) 64 % of control and 81 % of control; (dose: 200.0 mg/kg/injection, schedule: Q01DX007 (ip), vehicle: carboxymethylcellulose (CMC)) 64 % of control and 65 % of control; (dose: 250.0 mg/kg/injection, schedule: Q#A X014 (ip), vehicle: methylcellulose (MC)) 36 % of control.
As for `COC12C(COC(N)=O)C3=C(C(=O)C(C)=C(N)C3=O)N1CC1C2N1C` (configuration not stated), the T/C runs as follows: (dose: 0.62 mg/kg/injection, schedule: Q#A X014 (ip), vehicle: carboxymethylcellulose (CMC)) 62 % of control; (dose: 1.25 mg/kg/injection, schedule: Q#A X014 (ip), vehicle: carboxymethylcellulose (CMC)) 123 % of control; (dose: 7.5 mg/kg/injection, schedule: Q#A X014 (ip), vehicle: carboxymethylcellulose (CMC)) 65 % of control; (dose: 15.0 mg/kg/injection, schedule: Q#A X014 (ip), vehicle: carboxymethylcellulose (CMC)) 6 % of control and 16 % of control and 25 % of control; (dose: 20.0 mg/kg/injection, schedule: Q#A X014 (ip), vehicle: carboxymethylcellulose (CMC)) 2 % of control.
For `CN(CCO)/N=N/c1nc[nH]c1C(N)=O`, the T/C is 73 % of control (dose: 125.0 mg/kg/injection, schedule: Q01DX007 (ip), vehicle: carboxymethylcellulose (CMC)) and 78 % of control (dose: 250.0 mg/kg/injection, schedule: Q01DX007 (ip), vehicle: carboxymethylcellulose (CMC)).
For the compound `[N-]=[N+]=CC(=O)NCC(=O)NN`, the T/C reads like this: (dose: 400.0 mg/kg/injection, schedule: Q01DX007 (ip), vehicle: water) 45 % of control; (dose: 450.0 mg/kg/injection, schedule: Q01DX007 (ip), vehicle: other) 43 % of control; under setting [1], 50 % of control; (dose: 600.0 mg/kg/injection, schedule: Q01DX007 (ip), vehicle: water) 34 % of control.
Take `O=P(Oc1ccccc1)(OP(=O)(Oc1ccccc1)N(CCCl)CCCl)N(CCCl)CCCl` (configuration not stated): the T/C was 85 % of control (dose: 12.5 mg/kg/injection, schedule: Q#A X014 (ip), vehicle: other); 76 % of control (dose: 25.0 mg/kg/injection, schedule: Q#A X014 (ip), vehicle: other); 112 % of control (dose: 50.0 mg/kg/injection, schedule: Q#A X014 (ip), vehicle: other).
Take `CC(=O)[C@H]1CC[C@H]2[C@@H]3C[C@H](F)C4=CC(=O)CC[C@]4(C)[C@@]3(F)[C@@H](O)C[C@]12C`: the T/C was 65 % of control (dose: 25.0 mg/kg/injection, schedule: Q01DX007 (sc), vehicle: steriod suspending solution); 49 % of control (dose: 37.0 mg/kg/injection, schedule: Q01DX007 (sc), vehicle: steriod suspending solution); 41 % of control (dose: 282.0 mg/kg/injection, schedule: Q01DX007 (sc), vehicle: steriod suspending solution); 36 % of control (dose: 423.0 mg/kg/injection, schedule: Q01DX007 (sc), vehicle: steriod suspending solution).
On to `O=C1CN(/N=C\c2ccc([N+](=O)[O-])o2)C(=O)N1`, for which the T/C is 91 % of control (dose: 6.25 mg/kg/injection, schedule: Q#A X014 (ip), vehicle: carboxymethylcellulose (CMC)); 94 % of control (dose: 12.5 mg/kg/injection, schedule: Q#A X014 (ip), vehicle: carboxymethylcellulose (CMC)); 106 % of control (dose: 15.5 mg/kg/injection, schedule: Q01DX007 (ip), vehicle: carboxymethylcellulose (CMC)); 92 % of control (dose: 21.0 mg/kg/injection, schedule: Q01DX007 (ip), vehicle: carboxymethylcellulose (CMC)); 97 % of control (dose: 25.0 mg/kg/injection, schedule: Q#A X014 (ip), vehicle: carboxymethylcellulose (CMC)); 88 % of control (dose: 42.0 mg/kg/injection, schedule: Q01DX007 (ip), vehicle: carboxymethylcellulose (CMC)). The T/C by setting is: (dose: 50.0 mg/kg/injection, schedule: Q#A X014 (ip), vehicle: carboxymethylcellulose (CMC)) 27 % of control; (dose: 84.0 mg/kg/injection, schedule: Q01DX007 (ip), vehicle: carboxymethylcellulose (CMC)) 103 % of control.
As to `CO[C@H]1CC[C@@]2(C)C(=CC[C@H]3[C@@H]4C[C@H](O)C[C@@]4(C)CC[C@@H]32)C1`, the T/C is, setting by setting: (dose: 2.5 mg/kg/injection, schedule: Q01DX007 (sc), vehicle: steriod suspending solution) 105 % of control; (dose: 5.0 mg/kg/injection, schedule: Q01DX007 (sc), vehicle: steriod suspending solution) 80 % of control.
On to `CC1(C)O[C@@H]2C[C@H]3[C@@H]4CCC5=CC(=O)C=C[C@]5(C)[C@@]4(F)[C@@H](O)C[C@]3(C)[C@]2(C(=O)CO)O1`, for which the T/C reads like this: (dose: 1.1 mg/kg/injection, schedule: Q#A X014 (sc), vehicle: steriod suspending solution) 41 % of control and 57 % of control; (dose: 1.65 mg/kg/injection, schedule: Q#A X014 (sc), vehicle: steriod suspending solution) 33 % of control and 34 % of control; (dose: 2.5 mg/kg/injection, schedule: Q#A X014 (sc), vehicle: steriod suspending solution) 20 % of control and 26 % of control; (dose: 3.75 mg/kg/injection, schedule: Q#A X014 (sc), vehicle: steriod suspending solution) 22 % of control.
In the case of `CS(=O)(=O)OCCCCCOS(C)(=O)=O`, the T/C is, setting by setting: (dose: 16.5 mg/kg/injection, schedule: Q#A X014 (ip), vehicle: methylcellulose (MC)) 54 % of control and 65 % of control; (dose: 37.5 mg/kg/injection, schedule: Q#A X014 (ip), vehicle: methylcellulose (MC)) 54 % of control; (dose: 56.5 mg/kg/injection, schedule: Q#A X014 (ip), vehicle: methylcellulose (MC)) 9 % of control.
For `CC(=O)Nc1c(Cl)c(Cl)c2c(c1Cl)Cc1cc(F)ccc1-2`, the T/C was 78 % of control under setting [2]; 24 % of control (dose: 111.0 mg/kg/injection, schedule: Q01DX007 (ip), vehicle: other); 31 % of control and 34 % of control (dose: 111.0 mg/kg/injection, schedule: Q#A X014 (ip), vehicle: saline); 81 % of control (dose: 125.0 mg/kg/injection, schedule: Q01DX007 (ip), vehicle: saline); 28 % of control and 31 % of control (dose: 166.5 mg/kg/injection, schedule: Q#A X014 (ip), vehicle: saline); 18 % of control and 35 % of control (dose: 250.0 mg/kg/injection, schedule: Q#A X014 (ip), vehicle: saline). In addition, the T/C is 36 % of control (dose: 333.0 mg/kg/injection, schedule: Q01DX007 (ip), vehicle: other); 21 % of control (dose: 375.0 mg/kg/injection, schedule: Q#A X014 (ip), vehicle: saline); 39 % of control under setting [1]; 32 % of control (dose: 750.0 mg/kg/injection, schedule: Q01DX007 (ip), vehicle: other).
`NCCc1ccccc1`: the T/C was 83 % of control (dose: 31.3 mg/kg/injection, schedule: Q01DX007 (ip), vehicle: saline) and 32 % of control under setting [2].
In the case of `CC(=O)Nc1cc2oc3ccccc3c2cc1[N+](=O)[O-]`, the T/C (dose: 220.0 mg/kg/injection, schedule: Q01DX007 (ip), vehicle: methylcellulose (MC)) was 67 % of control; the T/C (dose: 335.0 mg/kg/injection, schedule: Q01DX007 (ip), vehicle: methylcellulose (MC)) is 67 % of control; the T/C (dose: 400.0 mg/kg/injection, schedule: Q01DX007 (ip), vehicle: methylcellulose (MC)) is 72 % of control; the T/C (dose: 500.0 mg/kg/injection, schedule: Q01DX007 (ip), vehicle: methylcellulose (MC)) is 52 % of control; the T/C (dose: 600.0 mg/kg/injection, schedule: Q01DX007 (ip), vehicle: methylcellulose (MC)) is 77 % of control.
As for `N#[N+]c1nc[nH]c1C(N)=O`, the T/C is, setting by setting: (dose: 0.62 mg/kg/injection, schedule: Q#A X014 (ip), vehicle: methylcellulose (MC)) 61 % of control; (dose: 1.25 mg/kg/injection, schedule: Q#A X014 (ip), vehicle: methylcellulose (MC)) 53 % of control; (dose: 2.5 mg/kg/injection, schedule: Q#A X014 (ip), vehicle: methylcellulose (MC)) 55 % of control.
